Measurements: the supplement of paper PMC10307832

Legend:
Assay in all cases: relative viability (nuclei count vs DMSO), 5 days (fraction); higher = more cells survive
Dinaciclib + AZD7762 = compound: CCc1cnn2c(NCc3ccc[n+]([O-])c3)cc(N3CCCC[C@H]3CCO)nc12 [Dinaciclib] + NC(=O)Nc1cc(-c2cccc(F)c2)sc1C(=O)N[C@H]1CCCNC1 [AZD7762] (partner 0.2 µM)
How it was run: (§1)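 One day after seeding in 1536-well plates, lung cancer cell lines were dosed by pin tool. Dosing was either single-drug or a fixed anchor-drug dose plus five library-drug doses (not always all listed) in √10 steps. After 5 days, nuclei were stained in one fix-and-stain step and counted on 4× images, and relative viability is the nuclei count of treated wells over that of vehicle wells, given as the median of duplicate plates.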

Dinaciclib + Pictilisib = compound: CCc1cnn2c(NCc3ccc[n+]([O-])c3)cc(N3CCCC[C@H]3CCO)nc12 [Dinaciclib] + CS(=O)(=O)N1CCN(Cc2cc3nc(-c4cccc5[nH]ncc45)nc(N4CCOCC4)c3s2)CC1 [Pictilisib] (partner 1 µM)
How it was run: as §1

Dinaciclib + Crizotinib = compound: CCc1cnn2c(NCc3ccc[n+]([O-])c3)cc(N3CCCC[C@H]3CCO)nc12 [Dinaciclib] + C[C@@H](Oc1cc(-c2cnn(C3CCNCC3)c2)cnc1N)c1c(Cl)ccc(F)c1Cl [Crizotinib] (partner 1 µM)
How it was run: as §1

Dinaciclib + Trametinib = compound: CCc1cnn2c(NCc3ccc[n+]([O-])c3)cc(N3CCCC[C@H]3CCO)nc12 [Dinaciclib] + CC(=O)Nc1cccc(-n2c(=O)n(C3CC3)c(=O)c3c(Nc4ccc(I)cc4F)n(C)c(=O)c(C)c32)c1 [Trametinib] (partner 0.02 µM)
How it was run: as §1

Dinaciclib + Olaparib = compound: CCc1cnn2c(NCc3ccc[n+]([O-])c3)cc(N3CCCC[C@H]3CCO)nc12 [Dinaciclib] + O=C(c1cc(Cc2n[nH]c(=O)c3ccccc23)ccc1F)N1CCN(C(=O)C2CC2)CC1 [Olaparib] (partner 8 µM)
How it was run: as §1

| Cell Line | relative viability (Dinaciclib + AZD7762; first compound 0.009487 µM) | relative viability (Dinaciclib + AZD7762; first compound 0.03 µM) | relative viability (Dinaciclib + AZD7762; first compound 0.09487 µM) | relative viability (Dinaciclib + AZD7762; first compound 0.3 µM) | relative viability (Dinaciclib + Pictilisib; first compound 0.009487 µM) | relative viability (Dinaciclib + Pictilisib; first compound 0.03 µM) | relative viability (Dinaciclib + Pictilisib; first compound 0.09487 µM) | relative viability (Dinaciclib + Pictilisib; first compound 0.3 µM) | relative viability (Dinaciclib + Crizotinib; first compound 0.009487 µM) | relative viability (Dinaciclib + Crizotinib; first compound 0.03 µM) | relative viability (Dinaciclib + Crizotinib; first compound 0.09487 µM) | relative viability (Dinaciclib + Crizotinib; first compound 0.3 µM) | relative viability (Dinaciclib + Trametinib; first compound 0.009487 µM) | relative viability (Dinaciclib + Trametinib; first compound 0.03 µM) | relative viability (Dinaciclib + Trametinib; first compound 0.09487 µM) | relative viability (Dinaciclib + Trametinib; first compound 0.3 µM) | relative viability (Dinaciclib + Olaparib; first compound 0.009487 µM) | relative viability (Dinaciclib + Olaparib; first compound 0.03 µM) | relative viability (Dinaciclib + Olaparib; first compound 0.09487 µM) | relative viability (Dinaciclib + Olaparib; first compound 0.3 µM) |
| --- | --- | --- | --- | --- | --- | --- | --- | --- | --- | --- | --- | --- | --- | --- | --- | --- | --- | --- | --- | --- |
| EMC-BAC-2 | 0.935 | 0.657 | 0.22 | 0.237 | 0.621 | 0.303 | 0.136 | 0.15 | 0.71 | 0.187 | 0.146 | 0.15 | 0.842 | 0.21 | 0.219 | 0.22 | 0.485 | 0.238 | 0.187 | 0.176 |
| NCI-H661 |  |  |  |  | 0.346 | 0.181 | 0.175 | 0.177 | 1.02 | 0.474 | 0.145 | 0.166 | 0.512 | 0.162 | 0.17 | 0.161 | 0.664 | 0.227 | 0.148 | 0.147 |
| LU99A | 0.322 | 0.11 | 0.106 | 0.115 | 0.283 | 0.134 | 0.109 | 0.122 | 0.315 | 0.131 | 0.125 | 0.122 | 0.511 | 0.14 | 0.127 | 0.146 | 0.199 | 0.112 | 0.117 | 0.125 |
| LK-2 | 0.448 | 0.116 | 0.0518 | 0.0532 | 0.358 | 0.23 | 0.21 | 0.214 | 0.232 | 0.202 | 0.21 | 0.18 | 0.574 | 0.152 | 0.133 | 0.125 | 0.615 | 0.0883 | 0.0805 | 0.0778 |
| SW 900 | 0.705 | 0.405 | 0.179 | 0.148 |  |  |  |  |  |  |  |  | 0.805 | 0.477 | 0.177 | 0.155 | 0.749 | 0.414 | 0.172 | 0.166 |
| NCI-H3122 | 1.07 | 0.107 | 0.0953 | 0.0953 | 0.385 | 0.178 | 0.134 | 0.13 | 0.253 | 0.127 | 0.145 | 0.13 | 0.292 | 0.102 | 0.0935 | 0.0911 | 0.579 | 0.0996 | 0.0974 | 0.0928 |
| NCI-H2347 | 0.78 | 0.226 | 0.2 | 0.185 | 0.455 | 0.292 | 0.327 | 0.179 | 0.734 | 0.146 | 0.202 | 0.156 | 0.301 | 0.247 | 0.159 | 0.154 | 0.523 | 0.241 | 0.216 | 0.209 |
| NCI-H1563 |  |  |  |  | 0.655 | 0.326 | 0.296 | 0.284 | 1.03 | 0.379 | 0.34 | 0.303 |  |  |  |  |  |  |  |  |
| HCC-827 | 0.243 | 0.162 | 0.105 | 0.143 | 0.998 | 0.446 | 0.242 | 0.223 | 0.946 | 0.333 | 0.16 | 0.15 | 0.511 | 0.186 | 0.12 | 0.135 | 0.631 | 0.123 | 0.116 | 0.117 |
| NCI-H1666 | 1.01 | 0.691 | 0.32 | 0.321 | 0.4 | 0.19 | 0.21 | 0.226 | 0.742 | 0.194 | 0.202 | 0.271 | 0.731 | 0.431 | 0.57 | 0.49 | 0.774 | 0.553 | 0.484 | 0.488 |
| NCI-H358 | 0.548 | 0.16 | 0.151 | 0.188 | 0.272 | 0.185 | 0.174 | 0.176 | 0.373 | 0.0972 | 0.135 | 0.144 | 0.109 | 0.0821 | 0.0838 | 0.102 | 0.552 | 0.0825 | 0.086 | 0.105 |
| 201T | 0.79 | 0.844 | 0.252 | 0.228 | 0.714 | 0.372 | 0.308 | 0.265 | 0.938 | 0.739 | 0.265 | 0.313 | 0.821 | 0.675 | 0.249 | 0.228 | 0.991 | 0.34 | 0.225 | 0.223 |
| PC-3 [JPC-3] | 0.904 | 0.476 | 0.308 | 0.279 | 0.556 | 0.578 | 0.262 | 0.233 | 0.953 | 0.799 | 0.232 | 0.198 | 0.737 | 0.657 | 0.334 | 0.321 | 1.09 | 0.57 | 0.321 | 0.288 |
| NCI-H2405 | 0.539 | 0.202 | 0.193 | 0.196 | 0.572 | 0.226 | 0.227 | 0.177 | 0.772 | 0.224 | 0.201 | 0.209 | 0.676 | 0.236 | 0.233 | 0.203 | 0.654 | 0.242 | 0.225 | 0.23 |
| IA-LM |  |  |  |  | 0.327 | 0.0323 | 0.0279 | 0.0329 | 0.725 | 0.0572 | 0.0441 | 0.0336 |  |  |  |  | 0.88 | 0.0461 | 0.0398 | 0.0287 |
